In patent US20230310445A1, “LOX ENZYME INHIBITING METHODS AND COMPOSITIONS” (ANOVIA BIOSCIENCES, INC., priority 2020, published 2023):

target: T1, Bovine lysyl oxidase (LOX) (Bos taurus, UniProt P33072); test: LOX inhibition assay (fluorometric, cadaverine/Amplex Red/HRP); format: biochemical; conditions: IC50 class; bovine tendon LOX, cadaverine substrate; read-out: Activity Range LOX
T1 construct: from tissue; host or cells: adult bovine tendon
T1 sequence (P33072 170-418): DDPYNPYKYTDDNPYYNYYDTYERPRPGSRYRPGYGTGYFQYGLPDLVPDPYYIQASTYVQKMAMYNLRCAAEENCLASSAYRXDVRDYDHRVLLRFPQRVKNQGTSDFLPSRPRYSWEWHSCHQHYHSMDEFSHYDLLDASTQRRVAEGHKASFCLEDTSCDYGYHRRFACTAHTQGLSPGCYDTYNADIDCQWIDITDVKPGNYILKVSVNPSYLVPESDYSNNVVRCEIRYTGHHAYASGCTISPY
Summary of the method: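 Bovine tendon-extracted LOX was preincubated 30 min at 37 °C with compound. Cadaverine/Amplex Red/HRP was then added and fluorescence (ex530/em600) monitored for 120 min at 37 °C. Progress-curve slopes, background-subtracted against no-protein wells, were normalised to DMSO controls and fitted with a four-parameter variable-slope dose-response model.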

Compound | IC50
CN(C)C(=O)[C@H]1C[C@@H](C2CCCCC2)CN(S(=O)(=O)c2cccc(CN)c2)C1 (relative stereo) [Example 138, cis-1-((3-(Aminomethyl)phenyl)sulfonyl)-5-cyclohexyl-N,N-dimethylpiperidine-3-carboxamide 2,2,2-trifluoroacetate] | > 30 µM
NCc1cccc(S(=O)(=O)N2C[C@@H](C(=O)N3CCS(=O)(=O)CC3)C[C@@H](C3CCCCC3)C2)c1 (racemic) [Example 140, cis-(1-((3-(Aminomethyl)phenyl)sulfonyl)-5-cyclohexylpiperidin-3-yl)(1,1-dioxidothiomorpholino)methanone] | > 30 µM
NCc1cccc(S(=O)(=O)N2C[C@@H](C(=O)N3CCOCC3)C[C@@H](C3CCCCC3)C2)c1 (racemic) [Example 139, cis-(1-((3-(Aminomethyl)phenyl)sulfonyl)-5-cyclohexylpiperidin-3-yl)(morpholino)methanone] | > 30 µM
NCc1cccc(S(=O)(=O)N2C[C@H](C(=O)N3CCS(=O)(=O)CC3)C[C@@H](c3ccccc3)C2)n1 (racemic) [Example 115T, trans-(1-((6-(Aminomethyl)pyridin-2-yl)sulfonyl)-5-phenylpiperidin-3-yl)(1,1-dioxidothiomorpholino)methanone 2,2,2-trifluoroacetate] | > 30 µM
CS(=O)(=O)[C@H]1C[C@@H](S(=O)(=O)c2cccc(CN)c2)CN(c2ccccc2F)C1 (racemic) [Example 92, cis-(3-((-1-(2-Fluorophenyl)-5-(methylsulfonyl)piperidin-3-yl)sulfonyl)phenyl)methanamine 2,2,2-trifluoroacetate] | > 30 µM
CS(=O)(=O)[C@@H]1C[C@@H](S(=O)(=O)c2cccc(CN)c2)CN(c2ccccc2)C1 (racemic) [Example 79, trans-(3-((-5-(Methylsulfonyl)-1-phenylpiperidin-3-yl)sulfonyl)phenyl)methanamine] | > 30 µM
CS(=O)(=O)[C@H]1C[C@@H](S(=O)(=O)c2cccc(CN)c2)CN(c2ccccc2)C1 (racemic) [Example 23, cis-(3-((-5-(Methylsulfonyl)-1-phenylpiperidin-3-yl)sulfonyl)phenyl)methanamine] | > 30 µM
NCc1cccc(S(=O)(=O)N2C[C@H](C(=O)N3CCS(=O)(=O)CC3)C[C@@H](c3ccccc3)C2)c1 (racemic) [Example 85, trans-(1-((3-(Aminomethyl)phenyl)sulfonyl)-5-phenylpiperidin-3-yl)(1,1-dioxidothiomorpholino)methanone 2,2,2-trifluoroacetate] | > 30 µM
CS(=O)(=O)N1C[C@H](Oc2cccc(CN)c2)C[C@H](c2ccccc2F)C1 (racemic) [Example 70, cis-(3-((5-(2-Fluorophenyl)-1-(methylsulfonyl)piperidin-3-yl)oxy)phenyl)methanamine 2,2,2-trifluoroacetate] | > 30 µM
NCc1ccnc(S(=O)(=O)N2C[C@H](C(=O)N3CCOCC3)C[C@H](c3ccccc3)C2)c1 [Example 133B, ((3R,5R)-1-((4-(aminomethyl)pyridin-2-yl)sulfonyl)-5-phenylpiperidin-3-yl)(morpholino)methanone 2,2,2-trifluoroacetate] | 1 to 30 µM
CN(C)C(=O)N1C[C@@H](c2ccccc2)C[C@@H](S(=O)(=O)c2cccc(CN)c2)C1.O=C(O)C(F)(F)F (racemic) [Example 74, cis-3-((3-(Aminomethyl)phenyl)sulfonyl)-N,N-dimethyl-5-phenylpiperidine-1-carboxamide 2,2,2-trifluoroacetate] | > 30 µM

The remaining lines, values ahead:

IC50 | Compound
≤ 0.5 µM | NCc1ccc(S(=O)(=O)N2C[C@H](C(=O)N3CCOCC3)C[C@H](c3ccccc3)C2)s1 [Example 13B, ((3R,5R)-1-((5-(aminomethyl)thiophen-2-yl)sulfonyl)-5-phenylpiperidin-3-yl)(morpholino)methanone]
1 to 30 µM | NCc1ccnc(S(=O)(=O)N2C[C@@H](C(=O)N3CCOCC3)C[C@@H](c3ccccc3)C2)c1 [Example 133A, ((3S,5S)-1-((4-(aminomethyl)pyridin-2-yl)sulfonyl)-5-phenylpiperidin-3-yl)(morpholino)methanone 2,2,2-trifluoroacetate]
≤ 0.5 µM | CS(=O)(=O)N1CCN(C(=O)[C@H]2C[C@@H](c3ccccc3F)CN(S(=O)(=O)c3ccc(CN)s3)C2)CC1.O=C(O)C(F)(F)F (racemic) [Example 91, cis-(1-((5-(Aminomethyl)thiophen-2-yl)sulfonyl)-5-(2-fluorophenyl)piperidin-3-yl)(4-(methylsulfonyl)piperazin-1-yl)methanone 2,2,2-trifluoroacetate]
1 to 30 µM | NCc1ccnc(S(=O)(=O)N2C[C@@H](C(=O)N3CCOCC3)C[C@@H](c3ccccc3)C2)c1 (relative stereo) [Example 133, cis-(1-((4-(Aminomethyl)pyridin-2-yl)sulfonyl)-5-phenylpiperidin-3-yl)(morpholino)methanone 2,2,2-trifluoroacetate]
1 to 30 µM | NCc1ccnc(S(=O)(=O)N2C[C@@H](C(=O)N3CCS(=O)(=O)CC3)C[C@@H](C3CCCCC3)C2)c1.O=C(O)C(F)(F)F (racemic) [Example 146, cis-(1-((4-(Aminomethyl)pyridin-2-yl)sulfonyl)-5-cyclohexylpiperidin-3-yl)(1,1-dioxidothiomorpholino)methanone 2,2,2-trifluoroacetate]
≤ 0.5 µM | NCc1ccc(S(=O)(=O)N2C[C@@H](C(=O)N3CCOCC3)C[C@@H](C3CCCCC3)C2)s1.O=C(O)C(F)(F)F (racemic) [Example 120, cis-(1-((5-(Aminomethyl)thiophen-2-yl)sulfonyl)-5-cyclohexylpiperidin-3-yl)(morpholino)methanone 2,2,2-trifluoroacetate]
1 to 30 µM | CN(C)C(=O)[C@H]1C[C@@H](C2CCCCC2)CN(S(=O)(=O)c2cc(CN)ccn2)C1 (racemic) [Example 144, cis-1-((4-(Aminomethyl)pyridin-2-yl)sulfonyl)-5-cyclohexyl-N,N-dimethylpiperidine-3-carboxamide 2,2,2-trifluoroacetate]
1 to 30 µM | NCc1ccnc(S(=O)(=O)N2C[C@@H](C(=O)N3CCS(=O)(=O)CC3)C[C@@H](c3ccccc3)C2)c1 (racemic) [Example 134, cis-(1-((4-(Aminomethyl)pyridin-2-yl)sulfonyl)-5-phenylpiperidin-3-yl)(1,1-dioxidothiomorpholino)methanone 2,2,2-trifluoroacetate]
1 to 30 µM | NCc1ccnc(S(=O)(=O)N2C[C@@H](C(=O)N3CCOCC3)C[C@@H](C3CCCCC3)C2)c1 (racemic) [Example 145, cis-(1-((4-(Aminomethyl)pyridin-2-yl)sulfonyl)-5-cyclohexylpiperidin-3-yl)(morpholino)methanone 2,2,2-trifluoroacetate]
≤ 0.5 µM | NCc1ccc(S(=O)(=O)N2C[C@H](C(=O)N3CCS(=O)(=O)CC3)C[C@@H](c3ccccc3)C2)s1.O=C(O)C(F)(F)F (racemic) [Example 75B, trans-(1-((5-(Aminomethyl)thiophen-2-yl)sulfonyl)-5-phenylpiperidin-3-yl)(1,1-dioxidothiomorpholino)methanone 2,2,2-trifluoroacetate]
